Data published in patent US8691865B2 (AbbVie Inc., priority 2008, dated 2014).

molecular target: human Cav2.2 (Homo sapiens, UniProt Q00975); assay: Assessment of calcium channel activity using FLIPR (Ca2+ influx in IMR32 cells); format: cell-based; settings: not given
Summary of the method: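 Human neuroblastoma IMR32 cells were seeded at 1−1.2×10^5 cells/well and cultured 48 h at 37 °C before FLIPR calcium influx measurement. Percent inhibition at each concentration was calculated against the no-inhibitor signal, and IC50 came from sigmoidal dose-response fits.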

Chain of human Cav2.2 (Q00975 whole entry): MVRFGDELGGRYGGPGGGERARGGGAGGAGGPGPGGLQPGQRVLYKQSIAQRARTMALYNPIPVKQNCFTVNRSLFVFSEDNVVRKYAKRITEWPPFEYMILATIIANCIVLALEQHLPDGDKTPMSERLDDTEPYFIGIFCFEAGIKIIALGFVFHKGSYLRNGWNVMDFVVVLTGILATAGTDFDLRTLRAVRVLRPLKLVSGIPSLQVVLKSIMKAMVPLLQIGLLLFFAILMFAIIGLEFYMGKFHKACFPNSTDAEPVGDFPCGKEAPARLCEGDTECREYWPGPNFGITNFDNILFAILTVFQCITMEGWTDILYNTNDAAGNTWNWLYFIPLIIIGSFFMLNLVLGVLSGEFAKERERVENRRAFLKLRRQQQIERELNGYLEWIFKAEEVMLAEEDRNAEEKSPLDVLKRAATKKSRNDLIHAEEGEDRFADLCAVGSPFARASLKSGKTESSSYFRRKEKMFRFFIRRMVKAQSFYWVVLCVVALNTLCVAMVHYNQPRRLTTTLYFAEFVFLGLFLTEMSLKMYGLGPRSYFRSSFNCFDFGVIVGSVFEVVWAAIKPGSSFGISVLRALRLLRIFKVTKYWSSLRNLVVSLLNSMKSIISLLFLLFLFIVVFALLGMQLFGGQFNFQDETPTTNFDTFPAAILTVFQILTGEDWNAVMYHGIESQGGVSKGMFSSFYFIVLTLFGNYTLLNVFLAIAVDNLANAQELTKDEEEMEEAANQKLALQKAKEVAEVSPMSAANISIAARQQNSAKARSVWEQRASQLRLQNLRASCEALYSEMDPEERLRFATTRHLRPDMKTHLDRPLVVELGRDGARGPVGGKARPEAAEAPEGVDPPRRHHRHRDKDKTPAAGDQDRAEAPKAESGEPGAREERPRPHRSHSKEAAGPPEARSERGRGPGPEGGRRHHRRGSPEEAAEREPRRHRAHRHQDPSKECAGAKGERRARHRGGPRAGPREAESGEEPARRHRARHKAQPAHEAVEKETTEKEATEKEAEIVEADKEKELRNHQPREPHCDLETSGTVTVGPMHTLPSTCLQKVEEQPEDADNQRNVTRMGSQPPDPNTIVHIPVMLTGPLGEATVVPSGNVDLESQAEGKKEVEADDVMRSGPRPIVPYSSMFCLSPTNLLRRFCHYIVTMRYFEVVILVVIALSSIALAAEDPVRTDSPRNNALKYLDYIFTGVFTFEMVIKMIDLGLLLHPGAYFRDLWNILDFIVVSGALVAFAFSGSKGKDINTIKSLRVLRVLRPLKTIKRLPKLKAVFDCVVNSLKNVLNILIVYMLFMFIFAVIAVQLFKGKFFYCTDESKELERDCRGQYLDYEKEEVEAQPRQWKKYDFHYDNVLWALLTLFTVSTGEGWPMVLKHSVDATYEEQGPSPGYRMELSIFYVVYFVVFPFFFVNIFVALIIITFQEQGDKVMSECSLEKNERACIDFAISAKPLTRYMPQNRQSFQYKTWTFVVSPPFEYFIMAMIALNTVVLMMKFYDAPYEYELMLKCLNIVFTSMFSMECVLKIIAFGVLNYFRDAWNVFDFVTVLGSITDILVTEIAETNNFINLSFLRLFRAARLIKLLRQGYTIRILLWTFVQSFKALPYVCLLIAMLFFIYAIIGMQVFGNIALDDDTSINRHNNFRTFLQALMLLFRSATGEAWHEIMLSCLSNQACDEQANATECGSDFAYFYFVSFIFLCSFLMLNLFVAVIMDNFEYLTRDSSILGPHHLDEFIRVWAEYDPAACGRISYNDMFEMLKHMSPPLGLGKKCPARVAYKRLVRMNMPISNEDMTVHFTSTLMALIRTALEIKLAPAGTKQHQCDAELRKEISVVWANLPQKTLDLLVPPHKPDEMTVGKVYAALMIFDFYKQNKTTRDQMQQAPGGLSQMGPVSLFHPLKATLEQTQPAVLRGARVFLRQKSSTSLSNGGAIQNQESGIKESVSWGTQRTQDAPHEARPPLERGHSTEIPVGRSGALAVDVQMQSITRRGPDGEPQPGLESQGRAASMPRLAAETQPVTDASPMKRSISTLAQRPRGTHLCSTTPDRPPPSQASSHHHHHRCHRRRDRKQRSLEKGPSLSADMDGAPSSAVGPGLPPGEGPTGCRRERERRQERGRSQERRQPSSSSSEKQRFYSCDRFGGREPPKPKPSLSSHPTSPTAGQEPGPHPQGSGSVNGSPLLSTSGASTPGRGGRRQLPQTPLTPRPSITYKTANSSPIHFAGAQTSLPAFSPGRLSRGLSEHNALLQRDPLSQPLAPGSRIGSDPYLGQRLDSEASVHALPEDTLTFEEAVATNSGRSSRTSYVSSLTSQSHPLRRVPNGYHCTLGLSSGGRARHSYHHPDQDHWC
Chain of human Cav2.2 (P54289 25-956 partner limits assumed): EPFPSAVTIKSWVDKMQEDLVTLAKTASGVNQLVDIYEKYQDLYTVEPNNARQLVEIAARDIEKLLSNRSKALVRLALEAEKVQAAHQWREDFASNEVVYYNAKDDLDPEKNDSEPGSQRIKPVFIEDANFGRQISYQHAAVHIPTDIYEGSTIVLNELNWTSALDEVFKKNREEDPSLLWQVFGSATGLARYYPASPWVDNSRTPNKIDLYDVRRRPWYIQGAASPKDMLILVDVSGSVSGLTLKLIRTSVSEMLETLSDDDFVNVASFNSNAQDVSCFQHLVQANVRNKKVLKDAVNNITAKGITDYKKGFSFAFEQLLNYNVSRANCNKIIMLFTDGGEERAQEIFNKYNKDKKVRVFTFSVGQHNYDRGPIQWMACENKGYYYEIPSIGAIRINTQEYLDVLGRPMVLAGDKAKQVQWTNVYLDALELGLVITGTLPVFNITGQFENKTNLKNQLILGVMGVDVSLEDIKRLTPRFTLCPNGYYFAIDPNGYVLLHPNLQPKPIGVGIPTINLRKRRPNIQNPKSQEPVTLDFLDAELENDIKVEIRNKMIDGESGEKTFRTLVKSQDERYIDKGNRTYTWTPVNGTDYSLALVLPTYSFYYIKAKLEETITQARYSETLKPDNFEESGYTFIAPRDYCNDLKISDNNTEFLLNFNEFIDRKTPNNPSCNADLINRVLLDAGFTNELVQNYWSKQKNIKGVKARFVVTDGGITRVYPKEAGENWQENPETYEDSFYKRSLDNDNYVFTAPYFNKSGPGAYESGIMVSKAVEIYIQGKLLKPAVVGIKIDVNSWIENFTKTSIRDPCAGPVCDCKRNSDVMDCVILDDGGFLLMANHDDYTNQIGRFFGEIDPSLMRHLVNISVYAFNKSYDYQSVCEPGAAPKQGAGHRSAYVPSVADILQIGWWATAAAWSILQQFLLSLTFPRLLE
Chain of human Cav2.2 (P54289 957-1103 partner limits assumed): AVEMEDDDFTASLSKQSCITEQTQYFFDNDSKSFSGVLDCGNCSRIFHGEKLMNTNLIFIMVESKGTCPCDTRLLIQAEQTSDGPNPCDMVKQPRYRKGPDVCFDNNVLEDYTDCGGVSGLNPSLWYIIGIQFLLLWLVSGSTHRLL
Chain of human Cav2.2 (P54284 whole entry partner): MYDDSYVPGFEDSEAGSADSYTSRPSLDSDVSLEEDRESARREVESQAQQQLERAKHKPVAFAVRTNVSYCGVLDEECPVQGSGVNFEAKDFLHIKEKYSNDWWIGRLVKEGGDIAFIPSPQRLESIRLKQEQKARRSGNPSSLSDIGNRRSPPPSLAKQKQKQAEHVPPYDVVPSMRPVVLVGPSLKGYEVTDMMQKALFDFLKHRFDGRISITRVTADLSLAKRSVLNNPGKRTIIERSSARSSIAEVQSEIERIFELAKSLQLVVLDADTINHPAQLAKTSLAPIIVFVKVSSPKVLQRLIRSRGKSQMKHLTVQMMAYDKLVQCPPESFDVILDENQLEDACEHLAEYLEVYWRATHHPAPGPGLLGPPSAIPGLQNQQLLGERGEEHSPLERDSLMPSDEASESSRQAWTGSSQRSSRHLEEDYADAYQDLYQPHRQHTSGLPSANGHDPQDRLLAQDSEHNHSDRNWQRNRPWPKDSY

| IC50 [µM] | SMILES |
| --- | --- |
| 1.26 | O=C(N[C@H]1CC[C@H]2CN(Cc3cccc(C(F)(F)F)c3)C[C@H]21)C1CCCCC1 (relative stereo) [Example 127, N-{(3aS*,4S*,6aR*)-2-[3-(trifluoromethyl)benzyl]octahydrocyclopenta[c]pyrrol-4-yl}cyclohexanecarboxamide] |
| 0.71 | FC(F)(F)c1cccc(N2C[C@H]3CC[C@H](NCc4nc5ccccc5[nH]4)[C@H]3C2)n1 [Example 683, (3aR,4S,6aS)-N-(1H-benzimidazol-2-ylmethyl)-2-[6-(trifluoromethyl)pyridin-2-yl]octahydrocyclopenta[c]pyrrol-4-amine] |
| 1 | CC(C)COC(=O)N[C@@H](CC(C)C)C(=O)N[C@@H]1CC[C@H]2CN(Cc3cccc(C(F)(F)F)c3)C[C@H]21 [Example 178, isobutyl (S)-4-methyl-1-oxo-1-((3aS,4R,6aR)-2-(3-(trifluoromethyl)benzyl)octahydrocyclopenta[c]pyrrol-4-ylamino)pentan-2-ylcarbamate] |
| 1.93 | O=C(N[C@H]1CC[C@H]2CN(Cc3ccccc3)C[C@H]21)C1(c2ccccc2)CCCC1 (relative stereo) [Example 1, N-[(3aS*,4S*,6aR*)-2-benzyloctahydrocyclopenta[c]pyrrol-4-yl]-1-phenylcyclopentanecarboxamide] |
| > 30 | CCC[C@H](NC)C(=O)N[C@@H]1CC[C@H]2CN(Cc3ccccc3)C[C@H]21 [Example 352, N^1-[(3aS,4R,6aR)-2-benzyloctahydrocyclopenta[c]pyrrol-4-yl]-N^2-methyl-L-norvalinamide] |
| > 30 | O=C(N[C@H]1CC[C@@H]2CN(c3ccnc(C(F)(F)F)c3)C[C@@H]21)[C@@H]1C[C@@H](F)CN1 [Example 638, (4R)-4-fluoro-N-{(3aR,4S,6aS)-2-[2-(trifluoromethyl)pyridin-4-yl]octahydrocyclopenta[c]pyrrol-4-yl}-L-prolinamide] |
| 7.26 | CN[C@@H](CC(C)C)C(=O)N[C@H]1CC[C@@H]2CN(c3ccc(SC(F)(F)F)cc3)C[C@@H]21 [Example 707, N^2-methyl-N-[(3aR,4S,6aS)-2-{4-[(trifluoromethyl)thio]phenyl}octahydrocyclopenta[c]pyrrol-4-yl]-L-leucinamide] |
| 3.51 | FC(F)(F)c1cccc(N2C[C@H]3CC[C@H](NCc4nc(-c5ccc(Cl)cc5)c[nH]4)[C@H]3C2)n1 [Example 745, (3aR,4S,6aS)-N-{[4-(4-chlorophenyl)-1H-imidazol-2-yl]methyl}-2-[6-(trifluoromethyl)pyridin-2-yl]octahydrocyclopenta[c]pyrrol-4-amine] |
| 0.66 | O=C(CC(c1ccccc1)c1ccccc1)N[C@H]1CC[C@H]2CN(Cc3cccc(C(F)(F)F)c3)C[C@H]21 (relative stereo) [Example 131, 3,3-diphenyl-N-{(3aS*,4S*,6aR*)-2-[3-(trifluoromethyl)benzyl]octahydrocyclopenta[c]pyrrol-4-yl}propanamide] |
| 0.57 | CC(C)(C)C(C(=O)N[C@H]1CC[C@H]2CN(Cc3cccc(C(F)(F)F)c3)C[C@H]21)c1ccccc1 (relative stereo) [Example 123, 3,3-dimethyl-2-phenyl-N-{(3aS*,4S*,6aR*)-2-[3-(trifluoromethyl)benzyl]octahydrocyclopenta[c]pyrrol-4-yl}butanamide] |
| > 30 | O=C(N[C@H]1CC[C@@H]2CN(c3ccc(OC(F)(F)F)cc3)C[C@@H]21)[C@@H]1C[C@@H](F)CN1 [Example 631, (4R)-4-fluoro-N-{(3aR,4S,6aS)-2-[4-(trifluoromethoxy)phenyl]octahydrocyclopenta[c]pyrrol-4-yl}-L-prolinamide] |
| 0.58 | FC(F)(F)c1cccc(N2C[C@H]3CC[C@H](NCc4cc5cccnc5s4)[C@H]3C2)n1 [Example 727, (3aR,4S,6aS)-N-(thieno[2,3-b]pyridin-2-ylmethyl)-2-[6-(trifluoromethyl)pyridin-2-yl]octahydrocyclopenta[c]pyrrol-4-amine] |
| 6.18 | O=C(Nc1ccc(F)cc1)N[C@H]1CC[C@@H]2CN(c3cccc(C(F)(F)F)n3)C[C@@H]21 [Example 709, 1-(4-fluorophenyl)-3-{(3aR,4S,6aS)-2-[6-(trifluoromethyl)pyridin-2-yl]octahydrocyclopenta[c]pyrrol-4-yl}urea] |
| 0.65 | CC(C)C[C@H](NC(=O)OC(C)(C)C)C(=O)N[C@@H]1CC[C@@H]2CN(Cc3cccc(C(F)(F)F)c3)C[C@@H]21 (stereo in doubt) [Example 137, N^2-(tert-butyloxycarbonyl)-N^1-{(3aR*,4R*,6aS*)-2-[3-(trifluoromethyl)benzyl]octahydrocyclopenta[c]pyrrol-4-yl}-L-leucinamide] |
| 2.53 | N[C@@H](CC1CC1)C(=O)N[C@H]1CC[C@@H]2CN(c3ccc(OC(F)(F)F)cc3)C[C@@H]21 [Example 776, 3-cyclopropyl-N-{(3aR,4S,6aS)-2-[4-(trifluoromethoxy)phenyl]octahydrocyclopenta[c]pyrrol-4-yl}-L-alaninamide] |
| 1.34 | O=C(N[C@@H]1CC[C@H]2CN(CCCCCC(c3ccc(F)cc3)c3ccc(F)cc3)C[C@H]21)C(C1CCCCC1)C1CCCCC1 [Example 78, N-{(3aS,4R,6aR)-2-[6,6-bis(4-fluorophenyl)hexyl]octahydrocyclopenta[c]pyrrol-4-yl}-2,2-dicyclohexylacetamide] |
| 5.87 | O=C(N[C@H]1CC[C@@H]2CN(S(=O)(=O)c3cccc(C(F)(F)F)c3)C[C@@H]21)[C@@H]1CCCN1 [Example 387, N-((3aR,4S,6aS)-2-{[3-(trifluoromethyl)phenyl]sulfonyl}octahydrocyclopenta[c]pyrrol-4-yl)-L-prolinamide] |

same assay, conditions: read-out: IC50 (μM) or percent inhibition (* indicates 3 minute incubation, otherwise 60 minute); IC50; 60 minute pre-incubation with compound; IMR32 cells, 80 mM KCl depolarization

| IC50 [µM] | SMILES |
| --- | --- |
| 0.86 | CC(C)C[C@@H](C(=O)N[C@@H]1CC[C@H]2CN(Cc3cccc(C(F)(F)F)c3)C[C@H]21)N(C)C(=O)C(C)(C)C [Example 176, N^2-(2,2-dimethylpropanoyl)-N^2-methyl-N^1-{(3aS,4R,6aR)-2-[3-(trifluoromethyl)benzyl]octahydrocyclopenta[c]pyrrol-4-yl}-L-leucinamide] |
| 2.01 | CC(C)C(C(=O)N[C@H]1CC[C@@H]2CN(Cc3ccc(F)cc3)C[C@@H]21)c1ccccc1 (stereo partly drawn) [Example 89, N-[(3aR,4S,6aS)-2-(4-fluorobenzyl)octahydrocyclopenta[c]pyrrol-4-yl]-3-methyl-2-phenylbutanamide] |
| 2.23 | CC(C)(C)CN[C@@H](CC(C)(C)C)C(=O)N[C@H]1CC[C@@H]2CN(S(=O)(=O)c3ccc(C(F)(F)F)cc3)C[C@@H]21 [Example 505, 4-methyl-N^2-neopentyl-N^1-((3aR,4S,6aS)-2-{[4-(trifluoromethyl)phenyl]sulfonyl}octahydrocyclopenta[c]pyrrol-4-yl)-L-leucinamide] |
| 3.36 | CC(C)(C)C(C(=O)N[C@H]1CC[C@@H]2CN(Cc3ccccc3)C[C@@H]21)c1ccccc1 (stereo partly drawn) [Example 52, N-[(3aR,4S,6aS)-2-benzyloctahydrocyclopenta[c]pyrrol-4-yl]-3,3-dimethyl-2-phenylbutanamide] |
| 17.6 | CC(C)C[C@@H](C(=O)N[C@@H]1CC[C@H]2CNC[C@H]21)N(C)C(=O)OC(C)(C)C [Example 349, tert-butyl methyl((S)-4-methyl-1-((3aS,4R,6aR)-octahydrocyclopenta[c]pyrrol-4-ylamino)-1-oxopentan-2-yl)carbamate] |
